Among the test systems are HL-60(TB) leukemia; HCT-15 colon; UO-31 renal; ACHN renal; NCI/ADR-RES ovarian; SR leukemia; RXF 393 renal; SN12C renal; MCF7 breast; OVCAR-3 ovarian.
Common to all, as to experiment: NCI anticancer screen, dose series, 384-well format

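GI50: concentration for 50% inhibition of growth. TGI marks complete inhibition of growth.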

Regarding `CC[C@@H](C(=O)[C@@H](C)[C@@H](O)[C@H](C)[C@@H]1O[C@@H]([C@@H](CC)C(=O)O)CC[C@@H]1C)[C@H]1O[C@]2(C=C[C@@H](O)[C@]3(CC[C@@](C)([C@H]4CC[C@](O)(CC)[C@H](C)O4)O3)O2)[C@H](C)C[C@@H]1C`, the GI50 in the assay with HL-60(TB) leukemia was under 10 nM; in the assay with HCT-15 colon, 299 nM; in the assay on UO-31 renal, 157 nM; with ACHN renal, 416 nM; in the assay with NCI/ADR-RES ovarian, 167 nM; in the assay with SR leukemia, under 10 nM. Further, the GI50 in the assay on RXF 393 renal, with SN12C renal, in the assay with MCF7 breast and with OVCAR-3 ovarian was under 10 nM throughout. Further, the TGI in the assay with HL-60(TB) leukemia was under 10 nM; with HCT-15 colon, 1190 nM; with UO-31 renal, 759 nM; in the assay with ACHN renal it was 13600 nM; in the assay on NCI/ADR-RES ovarian it was 2110 nM; in the assay on SR leukemia, under 10 nM. The TGI in the assay on RXF 393 renal is under 10 nM; in the assay with SN12C renal, 1760 nM; with MCF7 breast, 278 nM; with OVCAR-3 ovarian it was under 10 nM.

(Values after PubChem BioAssay (NCI).)
